This note sets out measurements from US20060111408A1, “Therapeutic benzothiazole compounds” (priority 2000, published 2006).

Assay [1] addresses T1, human recombinant ERβ (Homo sapiens, UniProt Q92731).
T1 construct: purchased PanVera (Madison, Wis.)
The assay can be described thus: Fluorescence polarization estrogen receptor (ERFP) binding assay, ERβ. Particulars: for Ki: fluorescence polarization competition with Fluormone ES2, IC50 converted to Ki by Kenakin formula, read-out: FP β-ER Ki; for FP Selectivity: β-ER over α-ER, from FP Ki values. The procedure:
(§1) Abbreviated Procedure for Fluorescence Polarization Estrogen Receptor (ERFP) Binding Assay
(§2) A homogeneous mix-and-measure estrogen receptor (ER) binding assay which utilizes fluorescence polarization (FP) technology is used to identify compounds with affinity for the estrogen receptor. Purchased from PanVera (Madison, Wis.), assay reagents include purified human recombinant ERα, human recombinant ERβ, ES2 screening buffer (100 mM potassium phosphate, pH 7.4, 100 μg/mL bovine gamma globulin), and Fluormone™ ES2.
(§3) For competition binding experiments, dilutions of test compounds are prepared at 2× the final assay concentration in 0.2% DMSO in ES2 Screening buffer on TECAN Genosys, and 25 μL compound/well is dispensed into black Costar ½ volume 96-well plates. […] Plates are gently shaken for at least 5 minutes to mix and incubated for at least 1 hr 45 minutes to achieve equilibrium. (Reaction mixtures are stable for up to 5 hours).
(§4) Polarized fluorescence intensity values are collected and subsequently converted electronically to millipolarization (mp) values. Following data reduction and normalization with Excel and/or Prism software, % Ctrl values at the various test concentrations are used to obtain IC50 values via non-linear regression analysis of a four-parameter logistic equation.
(In fluorescence polarisation assays a small probe gives low polarisation when free and higher when bound to something large.)

Assay [2] concerns the target T2, human recombinant ERα (Homo sapiens, UniProt P03372).
T2 construct: purchased PanVera (Madison, Wis.)
T2 sequence (P03372 1-595): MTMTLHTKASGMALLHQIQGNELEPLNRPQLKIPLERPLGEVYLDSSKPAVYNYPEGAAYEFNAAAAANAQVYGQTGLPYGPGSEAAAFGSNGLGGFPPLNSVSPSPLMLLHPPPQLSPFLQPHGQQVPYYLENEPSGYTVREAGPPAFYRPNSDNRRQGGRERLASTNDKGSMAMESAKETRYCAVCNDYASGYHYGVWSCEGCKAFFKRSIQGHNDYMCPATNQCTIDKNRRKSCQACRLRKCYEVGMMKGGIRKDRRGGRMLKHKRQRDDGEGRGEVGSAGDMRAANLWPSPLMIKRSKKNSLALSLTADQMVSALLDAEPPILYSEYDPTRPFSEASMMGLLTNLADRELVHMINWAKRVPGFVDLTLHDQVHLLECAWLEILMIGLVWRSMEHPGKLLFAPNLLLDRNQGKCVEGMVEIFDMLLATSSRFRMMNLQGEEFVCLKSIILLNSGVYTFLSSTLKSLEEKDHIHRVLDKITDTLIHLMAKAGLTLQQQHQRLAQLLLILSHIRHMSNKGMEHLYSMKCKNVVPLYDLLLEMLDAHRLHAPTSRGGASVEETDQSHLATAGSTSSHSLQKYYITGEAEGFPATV
The assay is described as follows: Fluorescence polarization estrogen receptor (ERFP) binding assay, ERα. As to conditions: fluorescence polarization competition with Fluormone ES2; IC50 converted to Ki by Kenakin formula; read-out: FP α-ER Ki. The procedure:
as §1, §2
as §3, with “hours). After centrifugation to remove air bubbles, plates are read on an LJL Analyst or Acquest equipped with Criterion software at the following settings: Fluorescence Polarization Mode; Static Polarizer on Excitation Side; Dynamic Polarizer on Emission Side; Excitation λ=485+/−10 nm; Emission λ=520+/−12.5 nm.” for “hours).”
as §4
Reference: Bolger et al., Rapid Screening of Environmental Chemicals for Estrogen Receptor Binding Capacity, Environmental Health Pespectives: 106 (1998), 1-7.

Assay [3] deals with T3, βER (Homo sapiens, UniProt Q92731).
T3 construct: expressed in transfected cells; host or cells: 293 cells (Human Embryonic Kidney, ATCC CRL-1573); the transfection step says 293T
The assay is described as follows: Cell-based assay for ER transcriptional activity (ERE β-gal reporter), βER-transfected 293 cells. Particulars: for EC50: 293 cells transfected with βER and ERE β-gal reporter; for Emax: HEK293, 293 cells transfected with βER, max controls 10 nM beta-estradiol; for ERE Selectivity: β-ER over α-ER, from ERE EC50 values. As to the method: (§5) Cell-based Assay for ER Transcriptional Activity:
(§6) ERs are ligand-dependent transcription factors that bind the promoter regions of genes at a consensus DNA sequence called the estrogen responsive element (ERE). The ER agonist or antagonist activity of a drug was determined by measuring the amount of reporter enzyme activity expressed from a plasmid under the control of an estrogen-responsive element when cells transiently transfected with ER and the reporter plasmid were exposed to drug. These experiments were conducted according to the following methods.
(§7) Cells are grown in DMEM supplemented with 10% FBS, glutamine, sodium pyruvate and penicillin/streptomycin. Cells are grown to 80% confluency and split 1:10 or 1:20.
(§8) 2. The next day the media is changed, 1 hour prior to transfection, to fresh phenol red-free DMEM 10% FBS (charcoal stripped) and supplements.
(§9) 3. Transfections are performed using the Profection Kit from Promega #El 200, this kit is based on calcium phosphate mediated transfection. Reagents are added in sterile polystyrene tubes in the following order:
(§10) 6. The day after transfection, cells are washed 2× with PBS Ca Mg freePBS containing 1 mM EGTA pH=7.6. […] Trypsin is neutralized with 6 ml DMEM (no phenol red)+10% charcoal stripped FBS. Cells are pelleted at 1000×g for 5 min. Cell pellet is resuspended in 10 ml DMEM (no phenol red)+2% charcoal stripped FBS supplemented with glutamine and Penn/Strep and the cells are counted. Additional medium is added to dilute the cell density to 500,000 cells/ml.
(§11) 7. […] Plates are incubated for approx. 2-4 hours to allow cells to attach.
(§12) 8. Compounds are prepared at concentration of 4 mM in 100% DMSO, then diluted into medium with supplements but no serum. The first 2 dilutions are done in medium with no DMSO, then the remaining dilutions are in medium plus 0.5% DMSO to keep the vehicle constant. Max controls are 10 nM beta-estradiol and background controls are 0.5% DMSO. Compounds are normally tested in the range of 10 uM to 1 nM and are prepared at twice the concentration to be tested. The compounds are added to the cell plates, 50 ul per well. All compounds are tested with an n=4 wells for single poke and n=2 for 9-pt curves.
(§13) 9. Cells are incubated overnight at 37° C. with the compounds.
(§14) 1. After 18-24 hr of stimulation, 100 ul of 7% CPRG cocktail is added to each well, the plate is incubated at 37C for approximately 30 minutes to 2 hours or until the OD reaches between 1.0 and 2.0.
(§15) 2. The plates are read on a spectrophotometric plate reader (Spectramax, Molecular Devices) at 570 nm and raw absorbances are obtained.
(§16) Data is compiled and interpreted with Excel using XLFit or GraphPad Prism to fit concentration-response curves.

The target in assay [4] is T4, αER (Homo sapiens, UniProt P03372).
T4 construct: expressed in transfected cells; host or cells: 293 cells (Human Embryonic Kidney, ATCC CRL-1573); the transfection step says 293T
T4 sequence (P03372 1-595): T2 sequence (P03372 1-595)
The assay can be described thus: Cell-based assay for ER transcriptional activity (ERE β-gal reporter), αER-transfected 293 cells. Particulars: for EC50: 293 cells transfected with αER and ERE β-gal reporter, read-out: ERE α-ER EC50; for ERE α-ER Max: 293 cells transfected with αER, max controls 10 nM beta-estradiol. As to the method:
as §5, §6, §7, §8, §9, §10, §11, §12, §13, §14, §15, §16

T1 sequence (Q92731 whole entry): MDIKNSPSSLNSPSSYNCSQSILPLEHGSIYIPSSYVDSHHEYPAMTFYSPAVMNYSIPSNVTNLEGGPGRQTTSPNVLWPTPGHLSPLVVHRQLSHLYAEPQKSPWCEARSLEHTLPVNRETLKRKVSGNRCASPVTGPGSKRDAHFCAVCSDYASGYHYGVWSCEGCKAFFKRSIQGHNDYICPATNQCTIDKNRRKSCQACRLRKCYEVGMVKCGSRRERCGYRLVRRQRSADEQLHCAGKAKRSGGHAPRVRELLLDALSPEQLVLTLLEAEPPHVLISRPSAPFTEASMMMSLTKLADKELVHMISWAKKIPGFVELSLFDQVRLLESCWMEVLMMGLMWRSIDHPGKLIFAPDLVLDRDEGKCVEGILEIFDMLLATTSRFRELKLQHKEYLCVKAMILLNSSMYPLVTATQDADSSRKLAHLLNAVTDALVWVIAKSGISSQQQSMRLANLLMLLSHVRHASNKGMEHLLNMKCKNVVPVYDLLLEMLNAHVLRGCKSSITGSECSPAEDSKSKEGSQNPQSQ
T3 sequence (Q92731 54-530 limits assumed): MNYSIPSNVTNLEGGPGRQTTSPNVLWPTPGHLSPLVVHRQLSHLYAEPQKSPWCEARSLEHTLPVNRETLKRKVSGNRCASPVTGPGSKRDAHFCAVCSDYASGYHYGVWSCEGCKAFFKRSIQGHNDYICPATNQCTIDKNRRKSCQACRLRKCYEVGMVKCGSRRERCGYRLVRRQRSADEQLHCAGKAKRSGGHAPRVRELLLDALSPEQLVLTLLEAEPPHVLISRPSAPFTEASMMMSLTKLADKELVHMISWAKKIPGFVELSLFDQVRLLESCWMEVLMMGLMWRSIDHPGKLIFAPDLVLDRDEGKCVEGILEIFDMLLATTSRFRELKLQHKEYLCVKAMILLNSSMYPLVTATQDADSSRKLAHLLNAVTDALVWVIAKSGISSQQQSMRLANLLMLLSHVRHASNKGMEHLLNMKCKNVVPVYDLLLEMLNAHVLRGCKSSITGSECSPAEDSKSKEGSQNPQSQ

The Ki is the dissociation constant of the complex between target and ligand, obtained from inhibition or displacement. For orientation: EC50 means the midpoint of the concentration-response curve. By Emax is commonly meant the size of the effect at its maximum, as opposed to the concentration needed. In the case of `Oc1ccc(-c2nc3c(Cl)cc(O)cc3o2)cc1` [Example 1, 4-Chloro-6-hydroxy-2-(4-hydroxyphenyl)benzoxazole], in assay [1], the Ki worked out at 0.0017 µM and the “FP Selectivity” value is given as 10. In assay [2], the Ki is 0.018 µM. Also, in assay [3], the midpoint of the response, the EC50, lay at 0.0012 µM; the Emax stood at 98%; the “ERE Selectivity” value came out at 52. Also, in assay [4], the EC50 amounted to 0.061 µM and the ERE α-ER Max was 103%.
Consider `Oc1cc(Br)c2oc(-c3ccc(O)c(Cl)c3)nc2c1` [Example 12, 7-Bromo-2-(3-chloro-4-hydroxy-phenyl)-benzooxazol-5-ol], for which, in assay [1], the Ki came to 0.0018 µM and the “FP Selectivity” value is recorded as 30. Moreover, the Ki in assay [2] was determined as 0.054 µM. Further, in assay [3], the response was half-maximal at 0.0005 µM (EC50), the Emax was determined as 81% and the “ERE Selectivity” value is listed as 153. In addition, in assay [4], the EC50 came to 0.076 µM and the ERE α-ER Max turned out to be 37%.
Regarding `Oc1ccc(-c2nc3c(O)cc(O)cc3o2)cc1` [Example 5, 4,6-Dihydroxy-2-(4-hydroxyphenyl)benzoxazole], in assay [1], the Ki worked out at 0.29 µM and the “FP Selectivity” value was 3. In addition, the Ki in assay [2] worked out at 1 µM. In addition, in assay [3], the Emax stood at 98% and the “ERE Selectivity” value is given as 1.8. In assay [4], the ERE α-ER Max is 102%.
For `COc1ccc2oc(-c3ccc(O)cc3)nc2c1` [Example 8, 2-(4-hydroxyphenyl)-5-methoxybenzoxazole], the Ki was 0.148 µM in assay [1] and 0.477 µM in assay [2]. Further, in assay [1], the “FP Selectivity” value was 3.
As for `Cc1cc(O)cc2oc(-c3ccc(O)cc3)nc12` [Example 3, 6-Hydroxy-2-(4-hydroxyphenyl)-4-methylbenzoxazole], in assay [1], the Ki amounted to 0.0048 µM and the “FP Selectivity” value is recorded as 25. Moreover, the Ki in assay [2] worked out at 0.121 µM. In addition, in assay [3], it took 0.023 µM to reach a half-maximal effect (EC50), the Emax came out at 89% and the “ERE Selectivity” value is 22. Moreover, in assay [4], the EC50 was 0.497 µM and the ERE α-ER Max turned out to be 102%.
